{
  "source": "patent US5264621A",
  "about": "“Anti-virus agent” (Sanyo-Kokusaku Pulp Co., Ltd., priority 1991, dated 1993)",
  "key": {"HTLV-IIIB": {"system": "HTLV-IIIB", "assay": "Inhibitory effect on the destruction of T-cells due to HIV (MTT), HTLV-IIIB", "format": "cell-based, HIV (human immunodeficiency virus)", "details": "MT-4 cells", "experimental": "(§1) 1. Inhibitory effect on the destruction of T-cells due to HIV\n(§2) Various concentrations of 3,3'-[1,10-decanediyl-bis(carbonylamino)]-bis(1,5-naphthalenedisulfonc acid) were added to each medium suspended 1×10^5 cells/ml of MT-4 cells, which was infected with HTLV-IIIB or HIV-1HE. Infection was made at an infection number of MOI=0.02. Then, after cultured for 4 days at 37° C., the number of surviving cells was quantitatively determined by dyeing surviving cells with MTT dye. Moreover, at the same time, by dyeing also non-infected cells with MTT dye, the toxicity of sample to cells was calculated."}, "HIV-1HE": {"system": "HIV-1HE", "assay": "Inhibitory effect on the destruction of T-cells due to HIV (MTT), HIV-1HE", "format": "cell-based, HIV (human immunodeficiency virus)", "details": "MT-4 cells", "experimental": "as §1, §2"}, "[1]": {"system": "MOLT-4 cells infected with HTLV-IIIB", "assay": "Inhibition of the formation of giant cells", "format": "cell-based", "details": "co-culture of HTLV-IIIB infected and non-infected MOLT-4 cells, 24 hours, counted under microscope", "experimental": "3. Inhibition of the formation of giant cells\nMOLT-4 cells infected with HTLV-IIIB and MOLT-4 cells without infection were cultured each in same number (5×10^4) in medium with 3,3'-[1,10-decanediyl-bis(carbonylamino)]-bis(1,5-naphthalenedisulfonic acid) added and, after cultured for 24 hours, the number of giant cells formed was counted under microscope."}, "[2]": {"assay": "Toxicity of sample to non-infected cells (MTT)", "format": "cell-based", "details": "human, mt-4 cells, non-infected MT-4 cells, read-out: CC50 = 50% toxic concentration", "experimental": "as §2"}, "bone marrow cells": {"system": "bone marrow cells", "details": "background statement; cited from earlier work"}, "[3]": {"details": "Human immunodeficiency virus 1, MT4, 96 h, MOI=0.02, 4 days at 37° C., MTT, read-out: EC50 = Effective concentration for inhibition of 50% cells"}},
  "note": "Like-named read-outs stand apart in the source and are kept apart here.",
  "data": [
    {"compound": "O=C(CCCCCCCCCCC(=O)Nc1cc(S(=O)(=O)O)c2cccc(S(=O)(=O)O)c2c1)Nc1cc(S(=O)(=O)O)c2cccc(S(=O)(=O)O)c2c1", "note": "[3,3'-[1,10-decanediyl-bis(carbonylamino)]-bis(1,5-naphthalenedisulfonic acid)]", "values": [
      {"measurement": "EC50", "setting": "HTLV-IIIB; [3]", "value": 46, "unit": "µg/mL"},
      {"measurement": "T.I. = Selective toxicity (CC50 /EC50)", "setting": "HTLV-IIIB", "value": 8.3},
      {"measurement": "EC50", "setting": "HIV-1HE; [3]", "value": 40.7, "unit": "µg/mL"},
      {"measurement": "T.I. = Selective toxicity (CC50 /EC50)", "setting": "HIV-1HE", "value": 12.3},
      {"measurement": "inhibitory activity against formation of giant cells", "setting": "[1]", "value": "recognized"},
      {"measurement": "CC50 at 96 h", "setting": "[2]; HIV-1HE system (No. 2)", "value": 500, "unit": "µg/mL"},
      {"measurement": "CC50 at 96 h", "setting": "[2]; HTLV-IIIB system (No. 1)", "value": 383, "unit": "µg/mL"}
    ]},
    {"compound": "Cc1cn([C@H]2C[C@H](N=[N+]=[N-])[C@@H](CO)O2)c(=O)[nH]c1=O", "note": "[AZT, azido thymidine]", "values": [
      {"measurement": "side effects", "setting": "bone marrow cells", "value": "inhibition of the growth of bone marrow cells"}
    ]}
  ]
}
